# According to patent publication US7507834B2, “Substituted anilinopyrazoles” (SmithKline Beechan Corporation, priority 2003, dated 2009):
# Target: CDK2 (Homo sapiens, UniProt P24941)
# Test: CDK2 substrate phosphorylation assay
# Type: biochemical
# Details: CDK2 expressed in baculovirus system; peptide Biotin-aminohexyl-ARRPMSPKKKA-NH2, [g-32P]ATP; pIC50 = −log10(IC50)
# Protocol: The compounds of the present invention have valuable pharmacologic properties. Different compounds from this class are particularly effective at inhibiting CDK2. Substrate phosphorylation assays were carried out as follows:
# Cyclin dependent protein kinase 2 assays utilized the peptide Biotin-aminohexyl-ARRPMSPKKKA-NH2 (SEQ ID NO:1) as phosphoryl group acceptor. CDK2 was expressed utilizing a baculovirus expression system and was partially purified to comprise 20-80% of total protein, with no detectable competing reactions present. Typically, assays were performed by incubating enzyme (0.2-10 nM), with and without inhibitor, peptide substrate ([…]), [g-32P]ATP ([…]), and 10-20 mM Mg2+ for periods of time generally within the range 10-120 minutes. Reactions were terminated with 0.2-2 volumes of either 20% acetic acid or 50-100 mM EDTA buffered to pH 7 (substrate consumption <20%). The buffer employed in enzyme assay was 100 mM HEPES pH 7.5 containing 0.1 mg/mL BSA and 5% DMSO. Inhibitors were diluted in 100% DMSO prior to addition into the assay. Detection of peptide phosphorylation was accomplished by scintillation counting following either collection of peptide onto phosphocellulose filters (for reactions stopped with acetic acid), collection of peptide in wells of 96 well plates coated with Streptavidin (Pierce) (reactions were stopped with EDTA), or addition of Avidin coated Scintillant impregnated beads (Scintillation Proximity Assays from Amersham, reactions were stopped with EDTA). Counts detected by any of these methodologies minus the appropriate background (assays with additional 40 mM EDTA or lacking peptide substrate) were assumed to be proportional to the reaction initial rates, and IC50s were determined by a least squares fit to the equation CPM=Vmax*(1−([I]/(K+[I])))+nsb, or −pIC50s were determined by a fit to the equation CPM=nsb+(Vmax−nsb)/(1+(x/10x−pIC50)), where nsb are the background counts […]. Radioactivity was determined by liquid scintillation counting.
row,IC50,SMILES
1,0.102 to 1 nM,"Nc1ccc(-c2cc(Nc3ccc(S(N)(=O)=O)cc3)[nH]n2)cc1 [Ih, 4-[5-(4-Amino-phenyl)-2H-pyrazol-3-ylamino]-benzenesulfonamide]"
2,1.02 to 10 nM,"Nc1cccc(-c2cc(Nc3ccc(S(N)(=O)=O)cc3)[nH]n2)c1 [Compound Ij, 4-[5-(3-Amino-phenyl)-2H-pyrazol-3-ylamino]-benzenesulfonamide]"
3,10.2 to 100 nM,"NS(=O)(=O)c1ccc(Nc2cc(-c3cccc(NC(=O)Nc4cc(C(F)(F)F)ccc4F)c3)n[nH]2)cc1 [Compound Il, 4-(5-{3-[3-(2-Fluoro-5-trifluoromethyl-phenyl)-ureido]-phenyl}-2H-pyrazol-3-ylamino)-benzenesulfonamide]"
4,102 to 20000 nM,"NS(=O)(=O)c1ccc(Nc2cc(-c3cccc(N4CCOCC4)c3)n[nH]2)cc1 [In, 4-[5-(3-Morpholin-4-yl-phenyl)-2H-pyrazol-3-ylamino]-benzenesulfonamide]"
